Results taken from patent US20190045783A1, “SUBSTITUTED IMIDAZOLYLCARBOXAMIDES AS PESTICIDES” (BAYER CROPSCIENCE AKTIENGESELLSCHAFT, priority 2016, published 2019).
Read-outs that look alike come from different tables or passages of the source.

Key:
[1] = system: green peach aphids (Myzus persicae); assay: Myzus persicae oral test; format: in vivo; settings: for pest or weed control at 20 ppm: Myzus persicae, 120 h, read-out: efficacy in %
Procedure: (§1) Solvent: 100 parts by weight of acetone
Subsequently, the plates are sealed with parafilm, which a mixed population of green peach aphids (Myzus persicae) within a second microtitre plate is able to puncture and imbibe the solution through it.
After 5 days, the efficacy in % is determined. 100% means that all the aphids have been killed; 0% means that no aphids have been killed.

[2] = log P by HPLC on reversed-phase column (C18), EEC directive 79/831 Annex V.A8; format: physicochemical; settings: for logP [n]: pH 7.8
[3] = system: green peach aphids (Myzus persicae); assay: Myzus persicae oral test (MYZUPE O), comparison with prior art; format: in vivo; settings: for Emax at 4 ppm / Emax at 0.8 ppm: Myzus persicae, po, read-out: % efficacy
Procedure: Myzus persicae—Oral Test (MYZUPE O)
as §1
50 μl of the active compound preparation are transferred into microtitre plates and made up to a final volume of 200 μl with 150 μl of IPL41 insect medium (33%+15% sugar). Subsequently, the plates are sealed with parafilm, which a mixed population of green peach aphids (Myzus persicae) within a second microtitre plate is able to puncture and imbibe the solution through it.
(§2) After the desired period of time (dat), the efficacy in % is determined. 100% means that all the aphids have been killed; 0% means that no aphids have been killed.

[4] = system: green peach aphid (Myzus persicae); assay: Myzus persicae spray test (MYZUPE), comparison with prior art; format: in vivo; settings: for Emax at 100 g/ha: Myzus persicae, read-out: % efficacy
Procedure: Myzus persicae—Spray Test (MYZUPE)
Emulsifier: alkylaryl polyglycol ether
as §2

[5] = system: green peach aphid (Myzus persicae); assay: Myzus persicae spray test (Chinese cabbage leaf discs); format: in vivo; settings: for pest or weed control at 500 g/ha: Myzus persicae, foliar, read-out: efficacy in %
Procedure: Myzus persicae—Spray Test
To produce a suitable active ingredient formulation, 1 part by weight of active ingredient is dissolved with the stated parts by weight of solvent and made up with water containing an emulsifier concentration of 1000 ppm until the desired concentration is attained. To produce further test concentrations, the formulation is diluted with emulsifier-containing water.
After 5-6 days, the efficacy in % is determined. 100% means that all the aphids have been killed; 0% means that no aphids have been killed.

[6] = application rate 20 ppm, after 5 days, oral, 100% = all aphids killed
[7] = reversed-phase HPLC column (C18), neutral range, pH 7.8, HPLC C18, 43° C., Table 1, read-out: logP [n]
[8] = 120 h, MYZUPE, 100 g of ai/ha, 5 dat
[9] = application rate 500 g/ha, after 5-6 days, Chinese cabbage leaf discs, 100% = all aphids killed
[10] = 120 h, MYZUPE O, 0.8 ppm, 5 dat
[11] = reversed-phase HPLC column (C18), neutral range, pH 7.8, HPLC C18, 43° C., preparation examples, read-out: log P[n]

Molecule	pest or weed control at 20 ppm [1, 6] [%]	chromatographic logP [2, 7]	pest or weed control at 500 g/ha [5, 9] [%]	efficacy in % [1, 6] [%]	logP [n] [2]	efficacy in % [5, 9] [%]	also measured
CN(C(=O)c1cnc(/C=N/OCc2cccnc2)n1C)c1cccnc1 [I-1-024]	100	1.24	–	–	–	–	Emax at 4 ppm ([3]; 144 h, MYZUPE O, 4 ppm, 6 dat): 90%
CCOC(=O)c1ncc(C(=O)N(C)c2cccnc2)n1C [I-1-025]	–	1.1	–	–	–	–	pest or weed control at 20 ppm ([1]; po): 100%; Emax at 100 g/ha [4]: 90%; pest or weed control at 500 g/ha [5]: 90%; Emax at 0.8 ppm ([3]; 120 h): 90%; Emax at 4 ppm ([3]; 120 h): 100%
CCn1c(C(=O)N(C)c2cccnc2)cnc1C(=O)N(C)C [I-1-074]	90	0.86	100	–	–	–	Emax at 100 g/ha [4, 8]: 90%; Emax at 0.8 ppm [3, 10]: 100%; Emax at 4 ppm ([3]; 120 h, MYZUPE O, 4 ppm, 5 dat): 100%
CN(C)C(=O)c1ncc(C(=O)N(C)c2cccnc2)n1C [I-1-033]	100	0.6	100	–	–	–	Emax at 100 g/ha [4, 8]: 90%; Emax at 0.8 ppm [3, 10]: 100%; Emax at 4 ppm ([3]; 120 h, MYZUPE O, 4 ppm, 5 dat): 100%
CN(C(=O)c1cnc(C(=O)Nc2ccccc2)n1C)c1cccnc1 [I-1-047]	100	1.82	100	–	–	–	Emax at 100 g/ha [4, 8]: 90%; Emax at 4 ppm ([3]; 120 h, MYZUPE O, 4 ppm, 5 dat): 100%
2-(Ethylcarbamothioyl)-N,1-dimethyl-N-(pyridin-3-yl)-1H-imidazole-5-carboxamide [I-1-056]	–	–	–	100	1.42	100	% efficacy ([4]; MYZUPE, 100 g of ai/ha, 5 dat): 100%; % efficacy ([3]; MYZUPE O, 0.8 ppm, 5 dat): 100%; % efficacy ([3]; MYZUPE O, 4 ppm, 5 dat): 100%
CCN(C(=O)c1cnc(C=NN(C)C(=O)OC)n1C)c1cccnc1 [I-1-045]	100	–	90	–	–	–	Emax at 100 g/ha [4, 8]: 90%; chromatographic logP ([2]; neutral range, pH 7.8, HPLC C18, 43° C., Table 1, read-out: logP [n]): 1.28; Emax at 4 ppm ([3]; 120 h, MYZUPE O, 4 ppm, 5 dat): 100%
CN(C(=O)c1cnc(C(=O)N2CCOCC2)n1C)c1cccnc1 [I-1-059]	100	0.73	100	–	–	–	Emax at 100 g/ha [4, 8]: 100%; Emax at 4 ppm ([3]; 120 h, MYZUPE O, 4 ppm, 5 dat): 100%
CCN(C(=O)c1cnc(C2OCC(C)(C)CO2)n1C)c1cccnc1 [I-1-040]	–	–	–	100	1.61	90	–
CCN(C(=O)c1cnc(C2OCCO2)n1C)c1cccnc1 [I-1-003]	–	–	–	100	0.98	90	–
CCCCN(/N=C/c1ncc(C(=O)N(C)c2cccnc2)n1C)C(=O)OCC [I-1-029]	–	–	–	100	2.06	90	–
COCCNC(=O)c1ncc(C(=O)N(C)c2cccnc2)n1C [I-1-064]	–	–	–	100	0.94	90	–
CC(C)CNC(=O)c1ncc(C(=O)N(C)c2cccnc2)n1C [I-1-065]	–	–	–	100	1.57	100	–
CN(C(=O)c1cnc(C(=O)NS(C)(=O)=O)n1C)c1cccnc1 [I-1-070]	90	-0.2	–	–	–	–	Emax at 0.8 ppm [3, 10]: 100%
CN(C(=O)c1cnc(C(=O)N2CCCC2)n1C)c1cccnc1 [I-1-054, N,1-Dimethyl-N-(pyridin-3-yl)-2-(pyrrolidin-1-ylcarbonyl)-1H-imidazole-5-carboxamide]	100	1.02	100	–	–	–	–
COC(=O)c1ncc(C(=O)N(C)c2cccnc2)n1C [I-1-026, Methyl 1-methyl-5-[methyl(pyridin-3-yl)carbamoyl]-1H-imidazol-2-carboxylate]	100	0.42	90	–	–	–	chromatographic logP ([2]; acidic range, pH 2.7, HPLC C18, 43° C., preparation examples, read-out: log P[a]): 0.53; chromatographic logP ([2]; neutral range, pH 7.8, HPLC C18, 43° C., preparation examples, read-out: log P[n]): 0.84
CN(C(=O)c1cnc(C(=O)NC(C)(C)C)n1C)c1cccnc1 [I-1-030]	–	–	–	100	1.62	90	–
CN(C(=O)c1cnc(/C=N/OCC(C)(C)C)n1C)c1cccnc1 [I-1-036]	–	–	–	100	2.22	100	–
CN(C(=O)c1cnc(C(=O)NCC(F)(F)F)n1C)c1cccnc1 [I-1-048]	–	–	–	100	1.42	100	–
CCN(C(=O)c1cnc(C=NOC)n1C)c1cccnc1 [I-1-044]	–	1.29	100	–	–	–	Emax at 100 g/ha [4, 8]: 90%; Emax at 4 ppm ([3]; 120 h, MYZUPE O, 4 ppm, 5 dat): 100%
CN(C(=O)c1cnc(C2OCC3(CC3)CO2)n1C)c1cccnc1 [I-1-015]	–	–	–	100	1.29	90	–
CN(C(=O)c1cnc(C(=O)NCc2ccccc2)n1C)c1cccnc1 [I-1-050]	100	1.75	90	–	–	–	Emax at 100 g/ha [4, 8]: 90%; Emax at 0.8 ppm [3, 10]: 90%; Emax at 4 ppm ([3]; 120 h, MYZUPE O, 4 ppm, 5 dat): 90%
CN(C(=O)c1cnc(C2OCCO2)n1C)c1cccnc1 [I-1-002]	–	–	–	100	0.73	90	–
CN(C)C(=O)c1ncc(C(=O)N(c2cccnc2)C2CC2)n1C [I-1-083]	90	1.02	90	–	–	–	Emax at 100 g/ha [4, 8]: 90%
CC(C)CO/N=C/c1ncc(C(=O)N(C)c2cccnc2)n1C [I-1-034]	–	–	–	100	2.07	90	–
CN(C(=O)c1cnc(C=O)n1C)c1cccnc1 [I-1-007, 2-Formyl-N,1-dimethyl-N-(pyridin-3-yl)-1H-imidazole-5-carboxamide]	–	–	–	–	–	–	pest or weed control at 20 ppm ([1]; po): 100%; chromatographic logP [2, 11]: 0.59; pest or weed control at 500 g/ha [5]: 100%
CCNC(=O)c1ncc(C(=O)N(C)c2cccnc2)n1C [I-1-046, N^2-Ethyl-N^5,1-dimethyl-N^5-(pyridin-3-yl)-1H-imidazole-2,5-dicarboxamide]	100	–	100	–	–	–	chromatographic logP ([2]; reversed-phase HPLC column (C18), acidic range, pH 2.7, HPLC C18, 43° C., preparation examples, read-out: log P[a]): 0.8; chromatographic logP [2, 11]: 0.97
